We go through two compounds from patent US4309559A, “Sulphonamides useful as pesticides” (FBC Limited, priority 1977, dated 1982).

The structures appear in SMILES notation.

Common to all, as to type: in vivo
For experiment [1], the system named is Peas (Pisum sativum). Put plainly: Post-emergence foliar spray, herbicidal/growth regulant response, peas. The conditions noted are these: Lathyrus oleraceus, 168 h, foliar spray 11.2 kg/ha, 7 days, 0=no effect, 100=complete kill, read-out: herbicidal or growth regulant response index. How it is done:
(§1) Seeds of the plant species listed below were sown in anodised aluminium pans, 19 cm long×9.5 cm wide×5 cm deep, containing John Innes I potting compost. They were then watered and placed in a controlled environment room (22° C.; 65-85% relative humidity; 14 hours per day artificial illumination at 13,000 lux). Fourteen days after sowing, the seedlings received a foliar spray of a compound listed below, formulated as a solution in 1:1 by volume aqueous acetone. The concentration of active ingredient and volume of application were adjusted so as to be equivalent to a rate of 11.2 kg/ha in 450 liters per hectare. After seven days growth in the controlled environment room, the plants were visually assessed for any herbicidal or growth regulant response. All differences from the untreated control were scored according to an index where 0=no effect and 100=complete kill.
(§2) The product of Example 95 was tested according to the procedure of Examples 49-55.

Experiment [2] has as its system Mustard (Sinapis alba). The experiment can be described thus: Post-emergence foliar spray, herbicidal/growth regulant response, mustard. The conditions noted are these: 168 h, foliar spray 11.2 kg/ha, 7 days, 0=no effect, 100=complete kill, read-out: herbicidal or growth regulant response index. How it is done: as §1, §2
In experiment [3] the test system is Linseed (Linum usitatissimum). The experiment can be described thus: Post-emergence foliar spray, herbicidal/growth regulant response, linseed. The conditions noted are these: 168 h, foliar spray 11.2 kg/ha, 7 days, 0=no effect, 100=complete kill, read-out: herbicidal or growth regulant response index. How it is done:
as §1, §2

Experiment [4] relates to Ryegrass (Lolium perenne). Put plainly: Post-emergence foliar spray, herbicidal/growth regulant response, ryegrass. The conditions noted are these: 168 h, foliar spray 11.2 kg/ha, 7 days, 0=no effect, 100=complete kill, read-out: herbicidal or growth regulant response index. As to the method: as §1, §2
Experiment [5] has as its system Sugarbeet (Beta vulgaris). The experiment can be described thus: Post-emergence foliar spray, herbicidal/growth regulant response, sugarbeet. The conditions noted are these: 168 h, foliar spray 11.2 kg/ha, 7 days, 0=no effect, 100=complete kill, read-out: herbicidal or growth regulant response index. As to the method: as §1, §2
The next experiment relates to Oat (Avena sativa). The experiment can be described thus: Post-emergence foliar spray, herbicidal/growth regulant response, oat. The conditions noted are these: 168 h, foliar spray 11.2 kg/ha, 7 days, 0=no effect, 100=complete kill, read-out: herbicidal or growth regulant response index. How it is done:
as §1, §2

Experiment [6] deals with French beans (Phaseolus vulgaris). The experiment can be described thus: Post-emergence foliar spray, herbicidal/growth regulant response, French beans. As to conditions: foliar spray 11.2 kg/ha, 7 days, 0=no effect, 100=complete kill. How it is done:
as §1, §2

In experiment [7] the test system is Peas (Pisum sativum). Put plainly: Soil incorporation (attaclay/sand dust), growth regulatory or herbicidal effects, peas. As to conditions: Lathyrus oleraceus, 504 h, soil incorporation 26 ppm, 21 days, 0=no effect, 100=complete kill, read-out: growth regulatory or herbicidal effect score. An excerpt: (§3) The compounds listed below were each formulated as an attaclay/sand dust and incorporated into John Innes I potting compost at a rate equivalent to 26 parts per million weight/volume of active ingredient to soil and placed in anodised aluminium pans, 19 cm long×9.5 cm wide×5.0 cm deep. This rate is approximately equivalent to a soil surface application of 11.2 kg active ingredient/hectare cultivated to a depth of 5 cm. Seeds of the species listed below were sown in the treated soil, watered and placed in a controlled environment room (22° C.; 65-85% relative humidity; 14 hours per day artificial illumination at 13,000 lux) for 21 days. The plants were then visually assessed for any growth regulatory or herbicidal effects. All differences from an untreated control were scored on a scale from 0-100, where 0 signifies no effect and 100 signifies complete kill.
(§4) The compounds listed below were tested according to the procedure of Examples 56-60 but at 130 parts per million weight/volume of active ingredient to soil. This rate is approximately equivalent to a soil surface application of 56 kg active ingredient per hectare cultivated to a depth of 5 cm.
(§5) The product of Example 95 was tested according to the procedure of Examples 56-60 but at 130 and 26 parts per million weight/volume. The results were as follows:
(§6) N-(2-oxopropyl)-2'-chloro-6'-methyl-methanesulphonanilide, formulated as an attaclay/sand dust, was incorporated in John Innes I potting compost at a rate equivalent to 130 parts per million weight/volume of active ingredient to soil and placed in anodised aluminium pans, 19 cm long×9.5 cm wide×5.0 cm deep. These rates are approximately equivalent to a soil surface application of 56 kg active ingredient per hectare cultivated to a depth of 5 cm. Seeds of Peas, Mustard, Linseed, Maize, Oats and Ryegrass were sown in the treated soil, watered and placed in a controlled environment room (22° C.; 65-85% relative humidity; 14 hours artificial illumination at 13000 lux) for 21 days.
(§7) The plants were then visually assessed for any growth regulatory or herbicidal effects. All differences from an untreated control were scored on a scale from 0-100, where 0 signifies no effect and 100 signifies complete suppression.

Experiment [8] has as its system Mustard (Sinapis alba). The experiment can be described thus: Soil incorporation (attaclay/sand dust), growth regulatory or herbicidal effects, mustard. The conditions noted are these: 504 h, soil incorporation 26 ppm, 21 days, 0=no effect, 100=complete kill, read-out: growth regulatory or herbicidal effect score.
Excerpt: as §3, §4, §5, §6, §7

Experiment [9] has as its system Linseed (Linum usitatissimum). Put plainly: Soil incorporation (attaclay/sand dust), growth regulatory or herbicidal effects, linseed. As to conditions: 504 h, soil incorporation 26 ppm, 21 days, 0=no effect, 100=complete kill, read-out: growth regulatory or herbicidal effect score.
Excerpt: as §3, §4, §5, §6, §7

In a further experiment the test system is Maize (Zea mays). The experiment can be described thus: Soil incorporation (attaclay/sand dust), growth regulatory or herbicidal effects, maize. As to conditions: 504 h, soil incorporation 26 ppm, 21 days, 0=no effect, 100=complete kill, read-out: growth regulatory or herbicidal effect score.
Excerpt: as §3, §4, §5, §6, §7

The subject of the next experiment is Oats (Avena sativa). Put plainly: Soil incorporation (attaclay/sand dust), growth regulatory or herbicidal effects, oats. The conditions noted are these: 504 h, soil incorporation 26 ppm, 21 days, 0=no effect, 100=complete kill, read-out: growth regulatory or herbicidal effect score.
Excerpt: as §3, §4, §5, §6, §7

Experiment [10] deals with Ryegrass (Lolium perenne). Put plainly: Soil incorporation (attaclay/sand dust), growth regulatory or herbicidal effects, ryegrass. The conditions noted are these: 504 h, soil incorporation 26 ppm, 21 days, 0=no effect, 100=complete kill, read-out: growth regulatory or herbicidal effect score.
Excerpt: as §3, §4, §5, §6, §7

Experiment [11] has as its system Wheat (Triticum aestivum). Put plainly: Pre-emergence soil surface spray, wheat. As to conditions: soil surface spray 2.8 kg/ha, 21 days, 0=no effect, 100=complete kill. An excerpt:
(§8) Seeds of the plant species listed below were sown in John Innes I potting compost in aluminium pans, 19 cm long×9.5 cm wide×5.0 cm high, one species per pan. The soil surface was then sprayed with a compound listed below, formulated as a solution in 1:1 by volume aqueous acetone except for the compound of Example 44 which was formulated as an aqueous suspension containing 1000 parts per million of the wetting agent Lissapol NX (nonylphenol/ethylene oxide condensate). Each compound was applied at a rate of 2.8 kg of active ingredient per hectare in 450 liters of spray liquid per hectare. The pans were then watered, and placed in a controlled environment room (22° C., relative humidity 65-85%, 14 hours per day artificial illumination at 17,000 lux) for 21 days. The plants were then visually assessed for any growth regulatory or herbicidal effects. All differences from an untreated control were scored on a scale from 0-100, where 0 signifies no effect and 100 signifies complete kill.

A further experiment concerns Barley (Hordeum vulgare). The experiment can be described thus: Pre-emergence soil surface spray, barley. The conditions noted are these: soil surface spray 2.8 kg/ha, 21 days, 0=no effect, 100=complete kill.
Excerpt: as §8

For a further experiment, the system named is Wild Oat (Avena fatua). Put plainly: Pre-emergence soil surface spray, wild oat. As to conditions: soil surface spray 2.8 kg/ha, 21 days, 0=no effect, 100=complete kill.
Excerpt: as §8

Experiment [12] deals with Blackgrass (Alopecurus myosuroides). Put plainly: Pre-emergence soil surface spray, blackgrass. The conditions noted are these: soil surface spray 2.8 kg/ha, 21 days, 0=no effect, 100=complete kill.
Excerpt: as §8

For experiment [13], the system named is Barnyardgrass (Echinochloa crus-galli). Put plainly: Pre-emergence soil surface spray, barnyardgrass. As to conditions: soil surface spray 2.8 kg/ha, 21 days, 0=no effect, 100=complete kill.
Excerpt: as §8

The test system of experiment [14] is Crabgrass (Digitaria sanguinalis). Put plainly: Pre-emergence soil surface spray, crabgrass. As to conditions: soil surface spray 2.8 kg/ha, 21 days, 0=no effect, 100=complete kill.
Excerpt: as §8

Experiment [15] concerns rice blast Pyricularia oryzae. The conditions noted are these: 2000 ppm; soil and leaves; 7 days; controls less than 5%.

For the compound `CCCS(=O)(=O)N(c1c(C)cccc1C)C(C)C(=O)OC(C)C` (centres unmarked) [Example 3], the pest or weed control at 11200 g/ha in the experiment with Peas (Pisum sativum) [1] amounted to 5%; in the experiment on Mustard (Sinapis alba) [2], 90%; in experiment [3], 30%; in [4], 15%. Moreover, the figures for the plant injury at 11200 g/ha (in [5]; with Oat (Avena sativa)) were 90% and 5%, respectively. Also, in experiment [6], the “herbicidal or growth regulant response index” value is 80. Moreover, the pest or weed control at 26 µg/mL was determined as 0% in the experiment on Peas (Pisum sativum) [7], 90% in the experiment with Mustard (Sinapis alba) [8], 20% in experiment [9] and 90% in experiment [10]. Moreover, the plant injury at 26 µg/mL with Maize (Zea mays) and in the experiment with Oats (Avena sativa) was 20% throughout. Besides, the “growth regulatory or herbicidal effect score” value in experiment [11] was 0; with Barley (Hordeum vulgare), 0; in the experiment on Wild Oat (Avena fatua), 80; in experiment [12] it was 90; in [13] it was 60; in experiment [14], 90.

For the compound `CS(=O)(=O)N(CC#N)c1ccc(SC#N)cc1` [Example 141], in experiment [15], the “% Control, rice blast” value is 84%.
